Assay results: patent publication US20210378246A1, “COMPOSITIONS COMPRISING HALAUXIFEN AND OTHER HERBICIDES AND METHODS THEREOF” (DOW AGROSCIENCES LLC, priority 2018, published 2021)
“And” between values parts separate entries of the source, which are not always exact repeats. Equal values may be shown once.

Experiments:
Assay in all cases: Greenhouse post-emergence weed control, visual score 0-100 percent
Assay type in all cases: in vivo
[1] = test system: Chenopodium album L. (common lambsquarters, CHEAL)
Excerpt: (§1) Results in Examples are greenhouse trial results.
(§2) Seeds or nutlets of the desired test plant species were planted in a soil matrix prepared by mixing a loam or sandy loam soil (e.g., 28.6 percent silt, 18.8 percent clay, and 52.6 percent sand, with a pH of about 5.8 and an organic matter content of about 1.8 percent) and calcareous grit in an 80 to 20 ratio. The soil matrix was contained in plastic pots with a volume of 1 quart and a surface area of 83.6 cm2. When required to ensure good germination and healthy plants, a fungicide treatment and/or other chemical or physical treatment was applied. The plants were grown for 8-22 days in a greenhouse with an approximate 14 h photoperiod which was maintained at about 29° C. during the day and 26° C. during the night. Nutrients (Peters Excel® 15-5-15 5-Ca 2-Mg and iron chelate) were applied in the irrigation solution as needed and water was added on a regular basis. Supplemental lighting was provided with overhead metal halide 1000-Watt lamps as necessary. The plants were employed for testing when they reached the first through fourth true leaf stage.
(§3) Treatments comprised of the acid or esters of halauxifen-methyl (methyl 4-amino-3-chloro-6-(4-chloro-2-fluoro-3-methoxyphenyl)picolinate), each formulated as an SC (suspension concentrate), and various herbicidal components alone and in combination. A form of the compound of Formula I were applied on an acid equivalent basis.
(§4) Treatment requirements were calculated based upon the rates being tested, the concentration of active ingredient or acid equivalent in the formulation, and a 12 mL application volume at a rate of 187 L/ha.
(§5) For treatments comprised of formulated and technical compounds, weighed amounts of the technical materials were placed individually in 25 mL glass vials and dissolved in a volume of 97:3 v/v acetone/DMSO to obtain 12× stock solutions, and measured amounts of the formulated compounds were placed individually in 25 mL glass vials and diluted in a volume of 1.5% (v/v) crop oil concentrate or water to obtain 12× stock solutions. […] As required, additional water and/or 97:3 v/v acetone/DMSO was added to individual application solutions so that the final acetone and DMSO concentrations of the application solutions being compared were 8.1% and 0.25%, respectively.
(§6) All stock solutions and applications solutions were visually inspected for compound compatibility prior to application. Spray solutions were applied to the plant material with an overhead Mandel track sprayer equipped with an 8002E nozzle calibrated to deliver 187 L/ha over an application area of 0.503 m2 at a spray height of 18 to 20 inches (46 to 50 cm) above average plant canopy height. Control plants were sprayed in the same manner with the solvent blank.
The treated plants and control plants were placed in a greenhouse as described above and watered by sub-irrigation to prevent wash-off of the test compounds. […], the condition of the test plants as compared with that of the untreated plants was determined visually and scored on a scale of 0 to 100 percent where 0 corresponds to no injury or growth inhibition and 100 corresponds to complete kill.

[2] = test system: Amaranthus rudis Sauer, (common waterhemp, AMATA); conditions: 7 DAA
Excerpt: as §1, §2, §3, §4, §5, §6
(§7) The treated plants and control plants were placed in a greenhouse as described above and watered by sub-irrigation to prevent wash-off of the test compounds. After approximately […], the condition of the test plants as compared with that of the untreated plants was determined visually and scored on a scale of 0 to 100 percent where 0 corresponds to no injury or growth inhibition and 100 corresponds to complete kill.

[3] = test system: Polygonum convolvulus L. (wild buckwheat, POLCO)
Excerpt: as §1, §2, §3, §4, §5, §6, §7

[4] = test system: Abutilon theophrasti Medik. (velvetleaf, ABUTH)
Excerpt: as §1, §2, §3, §4, §5, §6, §7

[5] = test system: Sinapis arvensis L. (wild mustard, SINAR)
Excerpt: as §1, §2, §3, §4, §5, §6, §7

For COC(=O)c1nc(-c2ccc(Cl)c(OC)c2F)cc(N)c1Cl [Chemical 1, methyl 4-amino-3-chloro-6-(4-chloro-2-fluoro-3-methoxyphenyl)picolinate], the “Chemical 1 Mean % Weed Control” value ([1]; 7 DAA, alone at 1 gae/ha) was 28.75%, the “Chemical 1 Mean % Weed Control” value ([1]; 7 DAA, alone at 2 gae/ha) was 56.25% and the “Chemical 1 Mean % Weed Control” value ([1]; 7 DAA, alone at 4 gae/ha) was 56.25%. For the same molecule, the “Chemical 1 Mean % Weed Control” value ([1]; 14 DAA, alone at 1 gae/ha) was 33.33% and 40%, the “Chemical 1 Mean % Weed Control” value ([1]; 14 DAA, alone at 2 gae/ha) was 60% and the “Chemical 1 Mean % Weed Control” value ([1]; 14 DAA, alone at 4 gae/ha) was 62.5% and 63.33%. The “Chemical 1 Mean % Weed Control” value ([1]; 17 DAA, alone at 1 gae/ha) was 40%, the “Chemical 1 Mean % Weed Control” value ([1]; 17 DAA, alone at 2 gae/ha) was 53.75% and the “Chemical 1 Mean % Weed Control” value ([1]; 17 DAA, alone at 4 gae/ha) was 62.5%. The “Chemical 1 Mean % Weed Control” value ([2]; alone at 2 gae/ha) was 70.5%, the “Chemical 1 Mean % Weed Control” value ([2]; alone at 4 gae/ha) was 73% and the “Chemical 1 Mean % Weed Control” value ([3]; 7 DAA, alone at 1 gae/ha) was 2.5%. The “Chemical 1 Mean % Weed Control” value ([3]; 7 DAA, alone at 2 gae/ha) was 11.25%, the “Chemical 1 Mean % Weed Control” value ([3]; 7 DAA, alone at 4 gae/ha) was 28.75% and the “Chemical 1 Mean % Weed Control” value ([3]; 14 DAA, alone at 2 gae/ha) was 0%. For the same molecule, the “Chemical 1 Mean % Weed Control” value ([3]; 14 DAA, alone at 4 gae/ha) was 20%, the “Chemical 1 Mean % Weed Control” value ([3]; 21 DAA, alone at 1 gae/ha) was 0% and the “Chemical 1 Mean % Weed Control” value ([3]; 21 DAA, alone at 2 gae/ha) was 6.25%. For the same molecule, the “Chemical 1 Mean % Weed Control” value ([3]; 21 DAA, alone at 4 gae/ha) was 17.5%, the “Chemical 1 Mean % Weed Control” value ([4]; 7 DAA, alone at 1 gae/ha) was 81.25% and the “Chemical 1 Mean % Weed Control” value ([4]; 7 DAA, alone at 2 gae/ha) was 81.25%. The “Chemical 1 Mean % Weed Control” value ([4]; 7 DAA, alone at 4 gae/ha) was 84.5%, the “Chemical 1 Mean % Weed Control” value ([4]; 14 DAA, alone at 2 gae/ha) was 87.25% and the “Chemical 1 Mean % Weed Control” value ([5]; 14 DAA, alone at 4 gae/ha) was 0%. For the same molecule, the “Chemical 1 Mean % Weed Control” value ([5]; 21 DAA, alone at 1 gae/ha) was 1.25%.

For CCCCCCC(C)OC(=O)COc1nc(F)c(Cl)c(N)c1Cl (stereo not drawn) [Chemical 3, 1-methytheptyl 2-[(4-amino-3,5-dichloro-6-fluoro-2-pyridinyl)oxy]acetate], the “Chemical 3 Mean % Weed Control” value ([1]; 7 DAA, alone at 8.8 gae/ha) was 0%, the “Chemical 3 Mean % Weed Control” value ([1]; 7 DAA, alone at 17.S gae/ha) was 0% and the “Chemical 3 Mean % Weed Control” value ([1]; 7 DAA, alone at 17.5 gae/ha) was 0%. The “Chemical 3 Mean % Weed Control” value ([1]; 7 DAA, alone at 35 gae/ha) was 0%, the “Chemical 3 Mean % Weed Control” value ([1]; 7 DAA, alone at 70 gae/ha) was 10% and the “Chemical 3 Mean % Weed Control” value ([1]; 14 DAA, alone at 8.8 gae/ha) was 0%. The “Chemical 3 Mean % Weed Control” value ([1]; 14 DAA, alone at 17.5 gae/ha) was 10% and 5%, the “Chemical 3 Mean % Weed Control” value ([1]; 14 DAA, alone at 35 gae/ha) was 5% and 3.75% and 1.75% and the “Chemical 3 Mean % Weed Control” value ([1]; 14 DAA, alone at 70 gae/ha) was 31.25% and 35%. The “Chemical 3 Mean % Weed Control” value ([1]; 17 DAA, alone at 8.8 gae/ha) was 0%, the “Chemical 3 Mean % Weed Control” value ([1]; 17 DAA, alone at 17.5 gae/ha) was 8.75% and the “Chemical 3 Mean % Weed Control” value ([1]; 17 DAA, alone at 35 gae/ha) was 3.75%. The “Chemical 3 Mean % Weed Control” value ([1]; 17 DAA, alone at 70 gae/ha) was 38.75%, the “Chemical 3 Mean % Weed Control” value ([2]; alone at 8.8 gae/ha) was 0% and the “Chemical 3 Mean % Weed Control” value ([2]; alone at 17.5 gae/ha) was 3.75%. The “Chemical 3 Mean % Weed Control” value ([2]; alone at 35 gae/ha) was 3.75%, the “Chemical 3 Mean % Weed Control” value ([3]; 7 DAA, alone at 8.6 gae/ha) was 52.5% and the “Chemical 3 Mean % Weed Control” value ([3]; 7 DAA, alone at 8.8 gae/ha) was 52.5%. For the same molecule, the “Chemical 3 Mean % Weed Control” value ([3]; 7 DAA, alone at 17.5 gae/ha) was 47.5%, the “Chemical 3 Mean % Weed Control” value ([3]; 14 DAA, alone at 8.8 gae/ha) was 12.5% and the “Chemical 3 Mean % Weed Control” value ([3]; 14 DAA, alone at 17.5 gae/ha) was 62.25%. For the same molecule, the “Chemical 3 Mean % Weed Control” value ([3]; 21 DAA, alone at 8.8 gae/ha) was 0%, the “Chemical 3 Mean % Weed Control” value ([4]; 7 DAA, alone at 8.8 gae/ha) was 15% and the “Chemical 3 Mean % Weed Control” value ([4]; 7 DAA, alone at 17.5 gae/ha) was 28.75%. The “Chemical 3 Mean % Weed Control” value ([4]; 7 DAA, alone at 35 gae/ha) was 67.5%, the “Chemical 3 Mean % Weed Control” value ([4]; 7 DAA, alone at 70 gae/ha) was 75.5% and the “Chemical 3 Mean % Weed Control” value ([4]; 14 DAA, alone at 8.8 gae/ha) was 2.5%. The “Chemical 3 Mean % Weed Control” value ([4]; 14 DAA, alone at 17.5 gae/ha) was 20%, the “Chemical 3 Mean % Weed Control” value ([4]; 14 DAA, alone at 35 gae/ha) was 67% and the “Chemical 3 Mean % Weed Control” value ([4]; 14 DAA, alone at 70 gae/ha) was 70%. The “Chemical 3 Mean % Weed Control” value ([5]; 14 DAA, alone at 35 gae/ha) was 63.75% and the “Chemical 3 Mean % Weed Control” value ([5]; 21 DAA, alone at 17.5 gae/ha) was 54.25%.
